The results in this text go back to DBAASP.

Assay in all cases: ≥ marks a high value that may be exact or a test limit, other limits are often not marked, values filed in µg/mL are converted to µM
For experiment [1], the system named is Salmonella enterica subsp. enterica serovar Typhimurium C77-31.
Experiment [2] relates to Pseudomonas aeruginosa ATCC 27853.
For experiment [3], the system named is Escherichia coli UB1005.
Experiment [4] deals with Enterococcus faecalis ATCC 29212.
Experiment [5] has as its system Salmonella enterica subsp. enterica serovar Typhimurium ATCC 14028.
Experiment [6] deals with Staphylococcus epidermidis ATCC 12228.
The subject of experiment [7] is Salmonella enterica subsp. enterica serovar Pullorum C79-13.
Experiment [8] has as its system Staphylococcus aureus ATCC 25923.
Experiment [9] has as its system Escherichia coli ATCC 25922.
In experiment [10] the test system is Candida albicans ATCC 2002.
Experiment [11] concerns Pseudomonas aeruginosa CMCCB 10104.
Experiment [12] concerns Escherichia coli.
The test system of experiment [13] is Staphylococcus aureus.
Experiment [14] has as its system Bacillus cereus.
For experiment [15], the system named is Escherichia coli NCTC 10418.
The subject of experiment [16] is Staphylococcus aureus NCTC 10788.
Experiment [17] deals with Staphylococcus aureus ATCC 29213.
In experiment [18] the test system is Bacillus subtilis 168.

Structures are written as SMILES. In brackets after ≈: the same amount, converted by molar mass.

Usually MIC stands for the least concentration at which growth counts as inhibited. As for `CC[C@H](C)[C@H](NC(=O)[C@H](CCCCN)NC(=O)[C@H](CCCCN)NC(=O)[C@H](Cc1ccccc1)NC(=O)[C@H](CC(C)C)NC(=O)[C@H](CCCCN)NC(=O)[C@H](Cc1c[nH]c2ccccc12)NC(=O)[C@@H](N)CCCCN)C(=O)N[C@@H](Cc1c[nH]c2ccccc12)C(=O)N[C@@H](Cc1c[nH]c2ccccc12)C(=O)N1CCC[C@H]1C(=O)N[C@@H](Cc1ccccc1)C(=O)N[C@@H](CC(C)C)C(=O)N[C@@H](CCCN=C(N)N)C(=O)N[C@@H](CCCN=C(N)N)C(N)=O` [KWKLFKKIWWPFLRR], the MIC was found to be 2 µM (≈ 4.26 µg/mL) in experiment [1]; 4 µM (≈ 8.53 µg/mL) in experiment [2]; 4 µM (≈ 8.53 µg/mL) in [3]; 2 µM (≈ 4.26 µg/mL) in [4]; 4 µM (≈ 8.53 µg/mL) in experiment [5]; 2 µM (≈ 4.26 µg/mL) in experiment [6]. In [7], the MIC was 4 µM (≈ 8.53 µg/mL).

For `CC[C@H](C)[C@H](NC(=O)[C@H](CC(C)C)NC(=O)[C@H](CC(C)C)NC(=O)[C@H](CC(N)=O)NC(=O)[C@H](CCCCN)NC(=O)[C@@H](NC(=O)[C@@H](NC(=O)[C@H](C)NC(=O)[C@H](CC(C)C)NC(=O)[C@@H](NC(=O)CN)C(C)C)[C@@H](C)O)C(C)C)C(=O)NCC(=O)N[C@H](C(=O)NCC(=O)N[C@@H](CC(=O)O)C(=O)NCC(=O)N[C@@H](C)C(=O)N[C@@H](C)C(=O)N[C@@H](CCC(N)=O)C(=O)N[C@@H](CO)C(=O)N[C@H](C(=O)N[C@@H](CC(C)C)C(=O)N[C@@H](CCCCN)C(=O)N[C@H](C(=O)N[C@@H](CC(C)C)C(=O)N[C@@H](CO)C(=O)N[C@H]1CSSC[C@@H](C(=O)O)NC(=O)[C@H](CC(=O)O)NC(=O)[C@H](CC(N)=O)NC(=O)[C@H](CO)NC(=O)[C@H](CC(C)C)NC(=O)[C@H](CCCCN)NC1=O)[C@@H](C)O)C(C)C)[C@@H](C)O` [GVLATVKNLLIGTGDGAAQSVLKTLSCKLSNDC], the MIC in experiment [8] was 6.81 µM (≈ 22.4 µg/mL); in experiment [9] it was 3.4 µM (≈ 11.2 µg/mL); in [10], 3.4 µM (≈ 11.2 µg/mL); in [11] it was 13.6 µM (≈ 44.8 µg/mL).

As to `CC[C@H](C)[C@H](NC(=O)[C@H](CCCCN)NC(=O)[C@H](CCCCN)NC(=O)CNC(=O)[C@H](CCSC)NC(=O)[C@H](CO)NC(=O)[C@@H](NC(=O)[C@@H](NC(=O)[C@H](CC(N)=O)NC(=O)CNC(=O)[C@H](CC(C)C)NC(=O)[C@H](Cc1ccccc1)NC(=O)[C@@H](N)C(C)C)[C@@H](C)CC)C(C)C)C(=O)O` [VFLGNIVSMGKKI], the MIC in experiment [8] was greater than 142 µM; in [9], greater than 142 µM; in [10], no less than 142 µM; in [11] it was no less than 142 µM.

Take `CC[C@H](C)[C@H](NC(=O)[C@H](CC(C)C)NC(=O)CN)C(=O)N[C@@H](CC(=O)O)C(=O)N[C@H](C(=O)N[C@H](C(=O)N[C@@H](CCCCN)C(=O)N[C@@H](CC(N)=O)C(=O)N[C@@H](CCSC)C(=O)N[C@@H](C)C(=O)N[C@@H](CC(C)C)C(=O)N[C@@H](CC(N)=O)C(=O)N[C@@H](C)C(=O)N[C@@H](C)C(=O)N[C@@H](CCCCN)C(=O)N[C@@H](CO)C(=O)N[C@@H](C)C(=O)NCC(=O)N[C@H](C(=O)N[C@@H](CO)C(=O)N[C@H](C(=O)N[C@@H](CC(C)C)C(=O)N[C@@H](CC(N)=O)C(=O)N[C@H](C(=O)N[C@@H](CC(C)C)C(=O)N[C@@H](CO)C(=O)N[C@H]1CSSC[C@@H](C(=O)O)NC(=O)[C@H]([C@@H](C)O)NC(=O)[C@H](CCCCN)NC(=O)[C@H](CO)NC(=O)[C@H](CC(C)C)NC(=O)[C@H](CCCCN)NC1=O)[C@@H](C)O)C(C)C)C(C)C)[C@@H](C)CC)[C@@H](C)O` [GLIDTIKNMALNAAKSAGVSVLNTLSCKLSKTC]: the MIC was determined as 6.12 µM (≈ 20.6 µg/mL) in experiment [8], 6.12 µM (≈ 20.6 µg/mL) in experiment [9], 3.06 µM (≈ 10.3 µg/mL) in [10] and 12.2 µM (≈ 41.2 µg/mL) in [11].

As to `CC[C@H](C)[C@H](NC(=O)[C@H](CC(C)C)NC(=O)[C@H](CC(C)C)NC(=O)[C@H](CC(=O)O)NC(=O)[C@H](CCCCN)NC(=O)[C@@H](NC(=O)[C@@H](NC(=O)CNC(=O)[C@H](CC(C)C)NC(=O)[C@@H](NC(=O)[C@@H](N)CO)C(C)C)[C@@H](C)O)C(C)C)C(=O)NCC(=O)N[C@@H](C)C(=O)NCC(=O)N[C@@H](CCCCN)C(=O)N[C@@H](CO)C(=O)N[C@@H](C)C(=O)N[C@@H](C)C(=O)N[C@@H](CCC(N)=O)C(=O)N[C@@H](CO)C(=O)N[C@H](C(=O)N[C@@H](CC(C)C)C(=O)N[C@H](C(=O)N[C@@H](C)C(=O)N[C@@H](CC(N)=O)C(=O)N[C@@H](CO)C(=O)N[C@H]1CSSC[C@@H](C(=O)O)NC(=O)[C@H](CO)NC(=O)[C@H](CC(N)=O)NC(=O)[C@H](CO)NC(=O)[C@H](CC(C)C)NC(=O)[C@H](CCCCN)NC1=O)[C@@H](C)O)C(C)C` [SVLGTVKDLLIGAGKSAAQSVLTANSCKLSNSC], the MIC was 1.82 µM (≈ 5.9 µg/mL) in experiment [8], 3.65 µM (≈ 11.8 µg/mL) in experiment [9], 3.65 µM (≈ 11.8 µg/mL) in [10] and 3.65 µM (≈ 11.8 µg/mL) in [11].

As to `CC[C@H](C)[C@@H]1NC(=O)[C@H](CCCCN)NC(=O)[C@@H](NC(=O)[C@H](CCCCN)NC(=O)[C@H](CC(C)C)NC(=O)[C@H](CC(N)=O)NC(=O)[C@H](CC(=O)O)NC(=O)[C@H](CC(C)C)NC(=O)[C@H](CC(C)C)NC(=O)[C@H](CC(N)=O)NC(=O)CNC(=O)[C@H](C)NC(=O)[C@H](CCC(=O)O)NC(=O)[C@H](CC(N)=O)NC(=O)[C@H](CCCCN)NC(=O)[C@H](C)NC(=O)[C@@H](NC(=O)[C@H](CC(N)=O)NC(=O)[C@H](CCCCN)NC(=O)[C@H](C)NC(=O)[C@@H](NC(=O)[C@H](CC(=O)O)NC(=O)[C@H](CCSC)NC(=O)[C@H](Cc2ccccc2)NC(=O)CN)[C@@H](C)O)C(C)C)CSSC[C@@H](C(=O)O)NC(=O)[C@H](C)NC(=O)[C@H](CCCCN)NC(=O)[C@H]([C@@H](C)O)NC1=O` [GFMDTAKNVAKNEAGNLLDNLKCKITKAC], the MIC turned out to be 2.02 µM (≈ 6.3 µg/mL) in experiment [8], 4.05 µM (≈ 12.6 µg/mL) in experiment [9], 2.02 µM (≈ 6.3 µg/mL) in experiment [10] and 4.05 µM (≈ 12.6 µg/mL) in experiment [11].

Regarding `CC(C)C[C@H](NC(=O)[C@H](CCCCN)NC(=O)[C@H](Cc1ccccc1)NC(=O)[C@@H](NC(=O)[C@@H](NC(=O)CNC(=O)[C@H](CC(C)C)NC(=O)[C@@H](N)Cc1ccccc1)C(C)C)C(C)C)C(=O)N[C@@H](C)C(=O)N[C@@H](CO)C(=O)N[C@@H](CCCCN)C(=O)N[C@H](C(=O)N[C@@H](Cc1ccccc1)C(=O)NCC(=O)N[C@@H](C)C(=O)N[C@H](C(=O)N[C@@H](Cc1ccccc1)C(=O)N[C@@H](CCCCN)C(=O)N[C@@H](CCCCN)C(=O)N[C@H](C(=O)O)C(C)C)C(C)C)C(C)C` [FLGVVFKLASKVFGAVFKKV], the MIC was 117 µM (≈ 256 µg/mL) in experiment [12], 3.66 µM (≈ 8 µg/mL) in [13] and 3.66 µM (≈ 8 µg/mL) in [14].

As for `CC[C@H](C)[C@H](NC(=O)CNC(=O)[C@H](CO)NC(=O)[C@H](CC(C)C)NC(=O)[C@H](Cc1cnc[nH]1)NC(=O)[C@@H]1CCCN1C(=O)[C@H](CC(C)C)NC(=O)[C@H](CC(C)C)NC(=O)[C@H](CCC(=O)O)NC(=O)[C@H](CCCCN)NC(=O)[C@@H](NC(=O)[C@@H](N)Cc1ccccc1)[C@@H](C)CC)C(=O)N[C@H](C(=O)N[C@@H](CC(=O)O)C(=O)N[C@@H](CO)C(=O)N[C@H](C(=O)N[C@@H](C)C(=O)N[C@@H](CC(N)=O)C(=O)N[C@@H](C)C(=O)N[C@H](C(=O)N[C@@H](CCCCN)C(N)=O)[C@@H](C)CC)C(C)C)[C@@H](C)CC` [FIKELLPHLSGIIDSVANAIK], the MIC in [15] was no less than 110 µM; in experiment [16] it was no less than 55 µM.

Consider `CC[C@H](C)[C@H](NC(=O)[C@@H]1CCCN1C(=O)[C@@H]1CCCN1)C(=O)N[C@H](C(=O)NCC(=O)N[C@@H](CO)C(=O)N[C@H](C(=O)N1CCC[C@H]1C(=O)N[C@@H](CC(C)C)C(=O)NCC(=O)N[C@@H](CS)C(=O)NCC(N)=O)[C@@H](C)CC)C(C)C` [PPIVGSIPLGCG], for which the MIC is no less than 128 µM in experiment [1]; greater than 128 µM in experiment [17]; greater than 128 µM in experiment [8]; greater than 128 µM in experiment [9]; no less than 128 µM in experiment [3]; greater than 128 µM in experiment [6].

`CC[C@H](C)[C@H](NC(=O)[C@H](CS)NC(=O)[C@H](CCSC)NC(=O)[C@H](CS)NC(=O)[C@H](CCCN=C(N)N)NC(=O)[C@@H](N)CC(C)C)C(=O)N[C@@H](CCCCN)C(=O)N[C@@H](Cc1c[nH]c2ccccc12)C(=O)N[C@@H](Cc1c[nH]c2ccccc12)C(=O)N[C@@H](CO)C(=O)NCC(=O)N[C@@H](CCCCN)C(=O)N[C@@H](Cc1cnc[nH]1)C(=O)N1CCC[C@H]1C(=O)N[C@@H](CCCCN)C(=O)O` [LRCMCIKWWSGKHPK]: the minimal inhibitory concentration (MIC) in experiment [18] was 7 µM (≈ 13.1 µg/mL).
